In patent EP0672658B1, “Antithrombotic agents” (priority 1994, dated 1995):
Counter-ions that a name gives are not always drawn. Like-named read-outs stand apart in the source and are kept apart here.

How the values were obtained:
Trypsin = target: T1, Trypsin (Bos taurus, UniProt P00760); test: biochemical; design: species or system Bovine
T1 sequence (P00760 24-246): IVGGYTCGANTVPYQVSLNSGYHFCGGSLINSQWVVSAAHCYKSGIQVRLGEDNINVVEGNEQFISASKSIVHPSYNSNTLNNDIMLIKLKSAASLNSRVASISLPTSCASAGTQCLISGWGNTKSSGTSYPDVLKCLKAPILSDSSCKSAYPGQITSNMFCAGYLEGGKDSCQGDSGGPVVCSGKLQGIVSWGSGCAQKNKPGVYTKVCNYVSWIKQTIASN
Experimental: (§1) By substantially following the procedures described above for human thrombin, and using other human blood coagulation system serine proteases and proteases of the fibrinolytic system with the appropriate chromogenic substrates, identified below, selectivity of the compounds of the present invention with respect to the coagulation factor serine proteases and with respect to the fibrinolytic system serine proteases are evaluated as well as their substantial lack of interference with serine proteases of the fibrinolytic system. Thrombin inhibitors preferably should spare fibrinolysis induced by urokinase, tissue plasminogen activator (t-PA) and streptokinase. This would be important to the therapeutic use of such agents as an adjunct to streptokinase, t-PA or urokinase thrombolytic therapy and to the use of such agents as an endogenous fibrinolysis-sparing (with respect to t-PA and urokinase) antithrombotic agent. In addition to the lack of interference with the amidase activity of the fibrinolytic proteases, such fibrinolytic system sparing can be studied by the use of human plasma clots and their lysis by the respective fibrinolytic plasminogen activators.
(§2) Human factors X, Xa, IXa, XIa, and XIIa are purchased from Enzyme Research Laboratories, South Bend, Indiana; human urokinase from Leo Pharmaceuticals, Denmark; and recombinant activated Protein C (aPC) is prepared at Eli Lilly and Co. substantially according to U.S. Patent 4,981,952. Chromogenic substrates: N-Benzoyl-Ile-Glu-Gly-Arg-p-nitroanilide (for factor Xa); N-Cbz-D-Arg-Gly-Arg-p-nitroanilide (for factor IXa assay as the factor Xa substrate); Pyroglutamyl-Pro-Arg-p-nitroanilide (for Factor XIa and for aPC); H-D-Pro-Phe-Arg-p-nitroanilide (for factor XIIa); and Pyroglutamyl-Gly-Arg-p-nitroanilide (for urokinase); are purchased from KabiVitrum, Stockholm, Sweden, or from Midwest Biotech, Fishers, Indiana. Bovine trypsin is purchased from Worthington Biochemicals, Freehold, New Jersey, and human plasma kallikrein from Kabi Vitrum, Stockholm, Sweden. Chromogenic substrate H-D-Pro-Phe-Arg-p-nitroanilide for plasma kallikrein is purchased from Kabi Vitrum, Stockholm, Sweden. N-Benzoyl-Phe-Val-Arg-p-nitroanilide, the substrate for human thrombin and for trypsin, is synthesized according to procedures described above for the compounds of the present invention, using known methods of peptide coupling from commercially available reactants or purchased from Midwest Biotech, Fishers, Indiana.

Plasmin = target: T2, Plasmin (Homo sapiens, UniProt P00747); test: biochemical
T2 construct: Human plasmin is purchased; purchased Boehringer Mannheim, Indianapolis, Indiana
T2 sequence (P00747 581-810 limits assumed): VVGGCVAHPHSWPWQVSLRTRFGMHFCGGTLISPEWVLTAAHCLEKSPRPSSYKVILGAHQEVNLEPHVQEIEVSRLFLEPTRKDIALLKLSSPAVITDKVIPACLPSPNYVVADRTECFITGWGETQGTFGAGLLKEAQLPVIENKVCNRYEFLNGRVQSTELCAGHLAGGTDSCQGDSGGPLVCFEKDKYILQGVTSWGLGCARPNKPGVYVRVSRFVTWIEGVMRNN
T2 sequence (P00747 97-580 partner limits assumed): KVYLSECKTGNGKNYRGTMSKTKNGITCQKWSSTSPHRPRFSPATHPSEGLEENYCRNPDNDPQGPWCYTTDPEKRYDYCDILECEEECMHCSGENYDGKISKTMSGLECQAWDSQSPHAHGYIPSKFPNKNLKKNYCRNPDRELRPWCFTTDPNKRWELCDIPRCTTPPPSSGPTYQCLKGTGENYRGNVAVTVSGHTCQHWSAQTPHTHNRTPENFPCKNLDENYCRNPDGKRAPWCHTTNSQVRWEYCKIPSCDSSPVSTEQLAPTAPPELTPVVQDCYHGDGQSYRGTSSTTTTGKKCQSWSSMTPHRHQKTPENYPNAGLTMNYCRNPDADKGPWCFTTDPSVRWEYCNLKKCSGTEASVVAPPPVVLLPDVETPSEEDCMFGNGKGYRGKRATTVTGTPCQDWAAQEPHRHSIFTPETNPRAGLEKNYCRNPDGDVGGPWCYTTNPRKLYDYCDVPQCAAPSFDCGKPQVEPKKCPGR
Experimental: as §1
(§3) Human plasmin is purchased from Boehringer Mannheim, Indianapolis, Indiana; nt-PA is purchased as single chain activity reference from American Diagnostica, Greenwich, Connecticut; modified-t-PA6 (mt-PA6) is prepared at Eli Lilly and Company by procedure known in the art (See, Burck, et al., J. Biol. Chem., 265, […] (1990). Plasmin chromogenic substrate H-D-Val-Leu-Lys-p-nitroanilide and tissue plasminogen activator (t-PA) substrate H-D-Ile-Pro-Arg-p-nitroanilide are purchased from Kabi Vitrum, Stockholm, Sweden.

t-PA = t-PA (Homo sapiens, UniProt P00750); test: biochemical
Chain of t-PA (P00750 36-562): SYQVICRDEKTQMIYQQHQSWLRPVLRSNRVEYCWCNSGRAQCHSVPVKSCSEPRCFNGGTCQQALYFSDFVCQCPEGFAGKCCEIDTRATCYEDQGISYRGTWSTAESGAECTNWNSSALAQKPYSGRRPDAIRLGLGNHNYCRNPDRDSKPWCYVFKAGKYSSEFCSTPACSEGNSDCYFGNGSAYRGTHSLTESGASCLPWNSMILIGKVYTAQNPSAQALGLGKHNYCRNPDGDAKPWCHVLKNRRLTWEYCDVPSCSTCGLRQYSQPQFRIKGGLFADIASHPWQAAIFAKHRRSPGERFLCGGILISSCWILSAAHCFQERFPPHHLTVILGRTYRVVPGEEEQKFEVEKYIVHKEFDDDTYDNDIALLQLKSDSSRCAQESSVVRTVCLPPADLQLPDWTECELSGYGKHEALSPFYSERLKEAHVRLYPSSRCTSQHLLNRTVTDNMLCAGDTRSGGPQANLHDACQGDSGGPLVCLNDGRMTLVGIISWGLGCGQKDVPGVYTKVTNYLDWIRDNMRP
Experimental: as §1, §3

factor Xa = factor Xa (Homo sapiens, UniProt P00742); test: biochemical
Chain of factor Xa (P00742 235-488 limits assumed): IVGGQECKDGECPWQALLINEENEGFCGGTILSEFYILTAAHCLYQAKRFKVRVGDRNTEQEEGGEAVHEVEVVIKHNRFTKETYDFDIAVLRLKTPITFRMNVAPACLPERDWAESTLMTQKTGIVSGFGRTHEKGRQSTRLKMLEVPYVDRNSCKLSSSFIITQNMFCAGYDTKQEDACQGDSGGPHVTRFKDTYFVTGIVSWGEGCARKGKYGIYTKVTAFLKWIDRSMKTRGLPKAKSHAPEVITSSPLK
Chain of factor Xa (P00742 41-179 partner limits assumed): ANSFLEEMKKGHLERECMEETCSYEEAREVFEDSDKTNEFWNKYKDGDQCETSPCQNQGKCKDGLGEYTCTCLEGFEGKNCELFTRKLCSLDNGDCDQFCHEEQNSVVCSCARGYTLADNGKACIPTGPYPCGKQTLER
Experimental: as §1, §2

Human Thrombin = Human Thrombin (Homo sapiens, UniProt P00734); test: biochemical; details: read-out: Kass Human Thrombin (converted)
human or animal plasma [1] = test: Anticoagulation determination in plasma: thrombin time (TT); assay type: biochemical; details: concentration doubling thrombin time
Experimental: (§4) Dog plasma and rat plasma is obtained from conscious mixed-breed hounds (either sex, Hazelton-LRE, Kalamazoo, Michigan, U.S.A.) or from anesthetized male Sprague-Dawley rats (Harlan Sprague-Dawley, Inc., Indianapolis, Indiana, U.S.A.) by venipuncture into 3.8 percent citrate. Fibrinogen is prepared from in-date ACD human blood as the fraction I-2 according to previous procedures and specifications. Smith, Biochem. J., 185, 1-11 (1980); and Smith, et al., Biochemistry, 11, 2958-2967 (1972). Human fibrinogen is also purchased as 98 percent pure/plasmin free from American Diagnostica, Greenwich, Connecticut. Coagulation reagents ACTIN, Thromboplastin, and Human plasma are from Baxter Healthcare Corp., Dade Division, Miami, Florida. Bovine thrombin from Parke-Davis (Ann Detroit, Michigan) is used for coagulation assays in plasma.
(§5) Coagulation assay procedures are as previously described. Smith, et al., Thrombosis Research, 50, 163-174 (1988). A CoAScreener coagulation instrument (American LABor, Inc.) is used for all coagulation assay measurements. The prothrombin time (PT) is measured by adding 0.05 mL saline and 0.05 mL Thromboplastin-C reagent to 0.05 mL test plasma. The activated partial thromboplastin time (APTT) is measured by incubation of 0.05 mL test plasma with 0.05 mL Actin reagent for 120 seconds followed by 0.05 mL CaCl2 (0.02 M). The thrombin time (TT) is measured by adding 0.05 mL saline and 0.05 mL thrombin (10 NIH units/mL) to 0.05 mL test plasma. The compounds of Formula I are added to human or animal plasma over a wide range of concentrations to determine prolongation effects on the APTT, PT, and TT assays. Linear extrapolations are performed to estimate the concentrations required to double the clotting time for each assay.

human or animal plasma [2] = test: Anticoagulation determination in plasma: prothrombin time (PT); assay type: biochemical; details: concentration doubling prothrombin time
Experimental: as §4, §5

human or animal plasma [3] = test: Anticoagulation determination in plasma: activated partial thromboplastin time (APTT); assay type: biochemical; details: concentration doubling activated partial thromboplastin time
Experimental: as §4, §5

[4] = read-out: Kass Trypsin (converted)
[5] = read-out: Kass Plasmin (converted)
[6] = read-out: Kass t-PA (converted)

SMILES	Kd (Trypsin; [4]) [µM]	Kd (Plasmin; [5]) [µM]	Kd (t-PA; [6]) [µM]	Kd (factor Xa; read-out: Kass Xa (converted)) [µM]	Kd (Human Thrombin) [µM]	Human Plasma Anticoagulation 2x Clotting time (ng/mL) TT (human or animal plasma [1])	Human Plasma Anticoagulation 2x Clotting time (ng/mL) PT (human or animal plasma [2])	Human Plasma Anticoagulation 2x Clotting time (ng/mL) APTT (human or animal plasma [3])	Kd (Trypsin) [µM]	Kd (Plasmin) [µM]	Kd (t-PA) [µM]	Kd (factor Xa) [µM]
N=C(N)Nc1ccc(CCNC(=O)[C@@H]2CCCN2C(=O)[C@@H]2NCC[C@@H]3CCCC[C@@H]32)cc1 [Example 39, D-1-Piq-Pro-p-NHCH2CH2C6H4NHC(NH)NH2·2HCl]	> 50	> 1000	–	> 1000	8.33	5,300 ng/mL	78,600 ng/mL	69,200 ng/mL	–	–	–	–
CCS(=O)(=O)N[C@H](CC1CCCCC1)C(=O)N1CCC[C@H]1C(=O)NCCCCNC(=N)N [Example 2, EtSO2-D-Cha-Pro-Agm·HCl]	1	22.2	43.5	109	0.227	170 ng/mL	–	–	–	–	–	–
N=C(N)c1ccc(CNC(=O)[C@@H]2CCCN2C(=O)[C@H](N)Cc2ccccc2)cc1 [Example 15, hydrochloride]	–	–	–	–	–	9 ng/mL	–	–	0.385	58.8	250	143
N=C(N)Nc1ccc(CNC(=O)[C@@H]2CCCN2C(=O)[C@@H]2NCC[C@@H]3CCCC[C@@H]32)cc1 [Example 38, D-1-Piq-Pro-p-NHCH2C6H4NHC(NH)NH2·2HCl]	14.3	> 1000	–	> 1000	0.909	540 ng/mL	11,100 ng/mL	6,100 ng/mL	–	–	–	–
N=C(N)Nc1cccc(CNC(=O)[C@@H]2CCCN2C(=O)[C@@H]2NCC[C@@H]3CCCC[C@@H]32)c1 [Example 40, D-1-Piq-Pro-m-NHCH2C6H4NHC(NH)NH2·2HCl]	100	> 1000	–	> 1000	33.3	35,100 ng/mL	>91,000 ng/mL	>91,000 ng/mL	–	–	–	–

Now from value to compound, other results behind:

Kd (Trypsin; [4]) [µM]	Kd (Plasmin; [5]) [µM]	Kd (t-PA; [6]) [µM]	Kd (factor Xa; read-out: Kass Xa (converted)) [µM]	Kd (Human Thrombin) [µM]	SMILES	Human Plasma Anticoagulation 2x Clotting time (ng/mL) TT (human or animal plasma [1])	Human Plasma Anticoagulation 2x Clotting time (ng/mL) PT (human or animal plasma [2])	Human Plasma Anticoagulation 2x Clotting time (ng/mL) APTT (human or animal plasma [3])	Kd (Trypsin) [µM]	Kd (Plasmin) [µM]	Kd (t-PA) [µM]	Kd (factor Xa) [µM]
1520	9090	> 1000	1020	2.04	Nc1ccc(CNC(=O)[C@@H]2CCCN2C(=O)[C@H](N)Cc2ccccc2)cc1 [Example 13, D-Phe-Pro-p-NHCH2C6H4NH2·HCl]	660 ng/mL	–	–	–	–	–	–
6670	4550	> 1000	2560	28.6	N=C(N)NCCCCCCNC(=O)[C@@H]1CCCN1C(=O)[C@H](N)Cc1ccccc1 [Example 5, D-Phe-Pro-NH(CH2)6NHC(NH)NH2·HCl]	30,000 ng/mL	–	–	–	–	–	–
13.2	303	13.5	175	0.0769	Cn1c(C(=O)N[C@H](Cc2ccccc2)C(=O)N2CCC[C@H]2C(=O)NCCCCNC(=N)N)cc2ccccc21 [Example 4, N-[(1-methyl-1H-indol-2-yl)carbonyl]-D-phenylalanyl-N-[4-[(aminoiminomethyl)amino]butyl]-L-prolinamide monohydrochloride]	230 ng/mL	–	–	–	–	–	–
